# Reference: article PMC9064813, “Interaction of the synthetic antithrombotic peptide P10 with thrombin: a spectroscopy study” (RSC Advances, 2019)
# Where no end group is shown, it is not given here.
# Assays:
# thrombin [1] = conditions: cited from earlier work; for inhibition of thrombin activity: at a concentration of 0.4 mg mL^−1, purified from Alcalase 2.4L hydrolysate of peanut protein
# Source text: In addition, three peptides SWAQL, GNHEAGE and CFNEYE were purified from the A ...
# thrombin [2] = biological target: T1, thrombin (Bos taurus, UniProt P00735); assay: fluorescence quenching of thrombin by P10 (Stern-Volmer, binding constant, thermodynamics); design: species or system Bovine; conditions: 310 K, log (F0 − F)/F against log [Q]
# T1 construct: thrombin consists of a 36-residue light chain and a 259-residue heavy chain; purchased Sigma-Aldrich Co. (St. Louis, MO, USA)
# Source text: The Stern–Volmer plot at 290 K and 310 K was plotted to determine the quenching mechanism (static quenching or dynamic quenching), as shown in Fig. 2B. F0 and F represented the fluorescence intensity of thrombin in the absence and presence of P10, respectively. And [Q] represented the concentration of the quencher. In general, the stability and quenching constants of the compounds formed under the static quenching mechanism decrease with increasing temperature. The interaction under dynamic quenching increases the number of effective collisions and enhances energy transfer, thus increasing the quenching constant of the fluorescent material as the temperature increases.[26,30]
# To confirm this conclusion, the fluorescence quenching data was further analyzed by the Stern–Volmer eqn (1).[31] Where Ksv represented the quenching constant of the Stern–Volmer.1 [drawing 1]
# The binding constant (Kb) and the number of binding sites (n) can be obtained from eqn (2) when small molecules are independently bound to a set of equivalent sites on the macromolecule:[33]2 [drawing 2] […]
# The fluorescence spectra were recorded on the Hitachi F-4500 fluorescence spectrophotometer (Hitachi, Japan). […] The fluorescence emission spectrum of the mixture from 290 nm to 420 nm was scanned, and the excitation wavelength was set to 280 nm. […]
# thrombin [3] = biological target: T1, thrombin; assay: in vitro antithrombotic activity (thrombin-induced fibrinogen clotting, absorbance at 405 nm); type: biochemical, Bovine
# Protocol: Antithrombotic activity was determined according to the method of Yang et al.[53] The samples of thrombin and fibrinogen were dissolved in 0.05 M pH 7.4 Tris–HCl buffer, respectively. The determination was carried out using the IMark plate reader (Uji-shi, Kyoto, Japan) at 405 nm. 140 μL of 1 mg mL^−1 fibrinogen and 40 μL of the sample were added to the microplate, then mixed and the absorbance was recorded as Sb. After, 10 μL of thrombin (12 IU mL^−1) was added to the mixture which was maintained at 37 °C for 10 min, and the absorbance was recorded as S. 40 μL of buffer instead of the sample was used for control group, and the absorbances were Cb and C, respectively. The antithrombotic activity was calculated from eqn (5) as follows:5 [drawing 4]
substance,measurement,setting,value
CFNEYE [peptide purified from the Alcalase 2.4L hydrolysate of peanut protein],inhibition of thrombin activity,thrombin [1],complete inhibition
SWAQL [peptide purified from the Alcalase 2.4L hydrolysate of peanut protein],inhibition of thrombin activity,thrombin [1],complete inhibition
VEPVTVNPHE [anticoagulant peptide purified from Buthus martensii Karsch],"IC50, inhibition of thrombin activity",thrombin [1]; peptide purified from Buthus martensii Karsch,12 µg/mL
GNHEAGE [peptide purified from the Alcalase 2.4L hydrolysate of peanut protein],inhibition of thrombin activity,thrombin [1],complete inhibition
"AGFAGDDAPR [P10, AGFAGDDAPR]",Binding constant Kb,thrombin [2],174 M⁻¹
same,IC50,thrombin [3],164 µM
KNAENELGEVTVR,antithrombotic activity,thrombin [1]; at a concentration of 1 mg mL^−1,67.21%
